For orientation: IC50 means the concentration that inhibits the measured activity by half.

The test system of assay [1] is PDK1 kinase activity in PC3 cells (phospho-T308-PKB). The experiment in a line: Cellular testing of PDK1 kinase inhibitors in PC3 cells (Luminex, phospho-T308-PKB). In kind it is cell-based. The note with it: Homo sapiens, PC-3, 0.5 h, 30 min with test substance, serum-free, phospho-T308-PKB by Luminex, read-out: IC50 [PC3 P-PKB Thr308]. The procedure, abridged: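 Serum-starved PC3 cells treated 30 min with compound (7-point dilution); lysates captured on anti-total-PKB Luminex beads, with phospho-T308-PKB detected by antibody. Signals corrected by 10 μM staurosporine blank, expressed as percent of 0.3% DMSO control, giving IC50.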

The next assay has as its target T1, PDK1 (Homo sapiens, UniProt O15530).
T1 construct: His6 (N)
The experiment in a line: Test for the inhibition of PDK1 (flashplate, 33P-ATP). In kind it is biochemical. The note with it: His6-PDK1 3.4 nM, 4 μM ATP, 30° C., 60 min. The procedure, abridged:
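His6-PDK1(1-50) at 3.4 nM with biotinylated peptide substrate (400 nM) and 4 μM ATP plus 33P-ATP, 60 min at 30° C. Incorporated radioactivity counted; blank from 100 nM staurosporin subtracted. Activity given as % of no-compound control; IC50 from dilution series.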

The subject of another assay is A2780 (ovary). As to the kind of experiment: Tumour cell proliferation/vitality assay (Alamar Blue). Format: cell-based. The note with it: Homo sapiens, 96 h, A2780 cells, 4 days of cultivation with test substance. Here is the method:
In the present experiment description, the inhibition of tumour cell proliferation/tumour cell vitality by active ingredients is described.
The cells are sown in a suitable cell density in microtitre plates (96-well format) and the test substances are added in the form of a concentration series. After four further days of cultivation in serum-containing medium, the tumour cell proliferation/tumour cell vitality can be determined by means of an Alamar Blue test system.
The cells are cultivated in medium. At intervals of several days, the cells are detached from the culture dishes with the aid of trypsin solution and sown in suitable dilution in fresh medium. The cells are cultivated at 37° Celsius and 10% CO2.
A defined number of cells (for example 2000 cells) per culture/well in a volume of 180 μl of culture medium are sown in microtitre plates (96 well cell-culture plates) using a multichannel pipette. The cells are subsequently cultivated in a CO2 incubator (37° C. and 10% CO2).
The test substances are dissolved, for example, in DMSO and subsequently employed in corresponding concentration (if desired in a dilution series) in the cell culture medium. The dilution steps can be adapted depending on the efficiency of the active ingredients and the desired spread of the concentrations. Cell culture medium is added to the test substances in corresponding concentrations. The addition of the test substances to the cells can take place on the same day as the sowing of the cells. To this end, in each case 20 μl of substance solution from the predilution plate are added to the cultures/wells. The cells are cultivated for a further 4 days at 37° Celsius and 10% CO2.
In each case, 20 μl of Alamar Blue reagent are added per well, and the microtitre plates are incubated, for example, for a further seven hours in a CO2 incubator (at 37° C. and 10% CO2). The plates are measured in a reader with a fluorescence filter at a wavelength of 540 nm. The plates can be shaken gently immediately before the measurement.
The absorbance value of the medium control (no cells and test substances used) is subtracted from all other absorbance values. The controls (cells without test substance) are set equal to 100 percent, and all other absorbance values are set in relation thereto (for example in % of control):
IC50 values (50% inhibition) are determined with the aid of statistics programs, such as, for example, RS1.
(Resazurin is reduced to fluorescent resorufin, in cell work by metabolically active cells.)

Each structure is given as a SMILES string.

T1 sequence (O15530 51-556): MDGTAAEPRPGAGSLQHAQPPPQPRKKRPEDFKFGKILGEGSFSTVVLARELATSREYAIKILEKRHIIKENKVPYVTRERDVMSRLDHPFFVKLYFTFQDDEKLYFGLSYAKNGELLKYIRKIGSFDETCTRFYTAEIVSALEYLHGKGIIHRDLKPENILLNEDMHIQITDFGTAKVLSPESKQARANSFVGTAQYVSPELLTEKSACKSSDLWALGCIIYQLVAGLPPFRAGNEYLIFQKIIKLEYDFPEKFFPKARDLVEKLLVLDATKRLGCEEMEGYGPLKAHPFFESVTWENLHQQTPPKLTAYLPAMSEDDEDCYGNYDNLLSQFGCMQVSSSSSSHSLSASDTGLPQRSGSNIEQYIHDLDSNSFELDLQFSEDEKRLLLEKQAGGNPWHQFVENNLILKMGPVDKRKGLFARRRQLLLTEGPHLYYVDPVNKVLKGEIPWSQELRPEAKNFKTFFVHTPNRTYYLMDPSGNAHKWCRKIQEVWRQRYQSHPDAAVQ

Consider `CCc1cc(-c2c[nH]c3ncc(-c4cnn(CC5CCCO5)c4)cc23)nc(N)n1` (centres unmarked) [Compound A2, 4-ethyl-6-{5-[1-(tetrahydrofuran-2-ylmethyl)-1H-pyrazol-4-yl]-1H-pyrrolo[2,3-b]pyridin-3-yl}-pyrimidin-2-ylamine], for which the IC50 was 10000 to 20000 nM in assay [1], 10 to 1000 nM at PDK1 and 10 to 1000 nM in the assay on A2780 (ovary).
In the case of `CCc1cc(-c2c[nH]c3ncc(-c4cnn(CCNC)c4)cc23)nc(N)n1` [Compound A3, 4-ethyl-6-{5-[1-(2-methylaminoethyl)-1H-pyrazol-4-yl]-1H-pyrrolo[2,3-b]pyridin-3-yl}pyrimidin-2-yl], the 50% inhibitory concentration (IC50) was 10000 to 20000 nM in assay [1], 10 to 1000 nM against PDK1 and 10 to 1000 nM in the assay with A2780 (ovary).
Take `CCc1cc(-c2c[nH]c3ncc(-c4cnn(CCCN(C)C)c4)cc23)nc(N)n1` [Compound A4, 4-{5-[1-(3-dimethylaminopropyl)-1H-pyrazol-4-yl]-1H-pyrrolo[2,3-b]pyridin-3-yl}-6-ethylpyrimidin-2-ylamine]: the IC50 in assay [1] is 1000 to 10000 nM; at PDK1 it was 10 to 1000 nM; with A2780 (ovary), 1000 to 10000 nM.
Regarding `CCc1cc(-c2c[nH]c3ncc(-c4cnn(C5CCN(C)CC5)c4)cc23)nc(N)n1` [Compound A5, 4-ethyl-6-{5-[1-(1-methylpiperidin-4-yl)-1H-pyrazol-4-yl]-1H-pyrrolo[2,3-b]pyridin-3-yl}-pyrimidin-2-ylamine], the IC50 in assay [1] lay in the range of 1000 to 10000 nM; against PDK1, 10 to 1000 nM; with A2780 (ovary), 10 to 1000 nM.
For `CCc1cc(-c2c[nH]c3ncc(-c4cnn(C5CCNCC5)c4)cc23)nc(N)n1` [Compound A6, 4-ethyl-6-[5-(1-piperidin-4-yl-1H-pyrazol-4-yl)-1H-pyrrolo[2,3-b]pyridin-3-yl]pyrimidin-2-ylamine], the IC50 in assay [1] is 10000 to 20000 nM; on PDK1 it was 10 to 1000 nM; in the assay with A2780 (ovary) it was 1000 to 10000 nM.
The like results for `CCc1cc(-c2c[nH]c3ncc(-c4cnn(CCN5CCCC5)c4)cc23)nc(N)n1` [Compound A7, 4-ethyl-6-{5-[1-(2-pyrrolidin-1-ylethyl)-1H-pyrazol-4-yl]-1H-pyrrolo[2,3-b]pyridin-3-yl}pyrimidin-2-ylamine] were, in that order, 10000 to 20000 nM, 10 to 1000 nM and 10 to 1000 nM.
In the case of `CCc1cc(-c2c[nH]c3ncc(-c4cnn(CCN5CCOCC5)c4)cc23)nc(N)n1` [Compound A8, 4-ethyl-6-{5-[1-(2-morpholin-4-ylethyl)-1H-pyrazol-4-yl]-1H-pyrrolo[2,3-b]pyridin-3-yl}pyrimidin-2-ylamine], the figures for the IC50 (in assay [1]; on PDK1; in the assay on A2780 (ovary)) were 1000 to 10000 nM, 10 to 1000 nM and 1000 to 10000 nM, respectively.
In the case of `CC(C)n1cc(-c2cnc3[nH]cc(-c4cc(C(C)(O)c5ccccc5)nc(N)n4)c3c2)cn1` (centres unmarked) [Compound A55, 1-{2-Amino-6-[5-(1-isopropyl-1H-pyrazol-4-yl)-1H-pyrrolo[2,3-b]pyridin-3-yl]-pyrimidin-4-yl}-1-phenylethanol], the IC50 (in assay [1]; at PDK1; with A2780 (ovary)) was 10 to 1000 nM throughout.
As for `CCC(O)(c1ccccc1)c1cc(-c2c[nH]c3ncc(-c4cnn(C(C)C)c4)cc23)nc(N)n1` (centres unmarked) [Compound A59, 1-{2-amino-6-[5-(1-isopropyl-1H-pyrazol-4-yl)-1H-pyrrolo[2,3-b]pyridin-3-yl]pyrimidin-4-yl}-1-phenylpropan-1-ol], the IC50 (in assay [1]; against PDK1; in the assay with A2780 (ovary)) was 10 to 1000 nM throughout.
Consider `CCC[C@H](O)c1cc(-c2c[nH]c3ncc(-c4cnn(C(C)C)c4)cc23)nc(N)n1` [Compound A90, (S)-1-{2-Amino-6-[5-(1-isopropyl-1H-pyrazol-4-yl)-1H-pyrrolo[2,3-b]pyridin-3-yl]pyrimidin-4-yl}butan-1-ol], for which the IC50 was 1000 to 10000 nM in assay [1], 10 to 1000 nM against PDK1 and 10 to 1000 nM with A2780 (ovary).
Take `CCC[C@@H](O)c1cc(-c2c[nH]c3ncc(-c4cnn(C(C)C)c4)cc23)nc(N)n1` [Compound A91, (R)-1-{2-Amino-6-[5-(1-isopropyl-1H-pyrazol-4-yl)-1H-pyrrolo[2,3-b]pyridin-3-yl]pyrimidin-4-yl}butan-1-ol]: the half-inhibitory concentration (IC50) (in assay [1]; against PDK1; with A2780 (ovary)) was 10 to 1000 nM throughout.
As for `CC(C)C(O)c1cc(-c2c[nH]c3ncc(-c4cnn(C(C)C)c4)cc23)nc(N)n1` (centres unmarked) [Compound A102, 1-{2-Amino-6-[5-(1-isopropyl-1H-pyrazol-4-yl)-1H-pyrrolo[2,3-b]pyridin-3-yl]-pyrimidin-4-yl}-2-methylpropan-1-ol], the IC50 in assay [1] is 1000 to 10000 nM; on PDK1, 10 to 1000 nM; with A2780 (ovary), 1000 to 10000 nM.
Turning to `CC(C)n1cc(-c2cnc3[nH]cc(-c4cc([C@](C)(O)c5ccccc5)nc(N)n4)c3c2)cn1` [Compound A123, (R)-1-{2-Amino-6-[5-(1-isopropyl-1H-pyrazol-4-yl)-1H-pyrrolo[2,3-b]pyridin-3-yl]pyrimidin-4-yl}-1-phenylethanol], the IC50 (in assay [1]; on PDK1; in the assay with A2780 (ovary)) was 10 to 1000 nM throughout.
As to `CC(C)n1cc(-c2cnc3[nH]cc(-c4cc([C@@](C)(O)c5ccccc5)nc(N)n4)c3c2)cn1` [Compound A124, (S)-1-{2-Amino-6-[5-(1-isopropyl-1H-pyrazol-4-yl)-1H-pyrrolo[2,3-b]pyridin-3-yl]pyrimidin-4-yl}-1-phenylethanol], the IC50 (in assay [1]; on PDK1; in the assay on A2780 (ovary)) was 10 to 1000 nM in each case.
On to `CCc1cc(-c2c[nH]c3ncc(-c4cnn(CC(=O)N5CCCc6ccccc65)c4)cc23)nc(N)n1` [Compound A128, 2-{4-[3-(2-Amino-6-ethylpyrimidin-4-yl)-1H-pyrrolo[2,3-b]pyridin-5-yl]pyrazol-1-yl}-1-(3,4-dihydro-2H-quinolin-1-yl)ethanone], for which the IC50 in assay [1] lay in the range of 1000 to 10000 nM; on PDK1 it was 10 to 1000 nM.

The values above are taken from patent US8420820B2, “Pyrrolopyridinylpyrimidin-2-ylamine derivatives” (Merck Patent GmbH, priority 2008, dated 2013).
